Results: publication PMC8597757, “Pharmacokinetic and Safety Profile of the Novel HIV Nonnucleoside Reverse Transcriptase Inhibitor MK-8507 in Adults without HIV” (Antimicrobial Agents and Chemotherapy, 2021)
“Also recorded” adds a separate entry of the source. Like-named read-outs stand apart in the source and are kept apart here.

Assays:
[1] = Multiple-dose (once weekly for 3 weeks) plasma pharmacokinetics of MK-8507 tablet; type: in vivo, human; conditions: for AUC(0-t) / concentration at 168 h / Cmax / Tmax / half-life: human, plasma, oral; for AUC(0-t): read-out: AUC0–168 (geometric mean [95% CI]); for concentration at 168 h: read-out: C168hr (geometric mean [95% CI]); for Cmax: read-out: Cmax (geometric mean [95% CI])
Method: MK-8507 in plasma was extracted by protein precipitation and analyzed by reversed-phase chromatographic separation coupled with tandem mass spectrometric detection by Merck & Co., Inc. (West Point, PA, USA). The liquid chromatography-tandem mass spectrometric (LC-MS/MS) system consisted of a Waters Acquity ultraperformance liquid chromatography system (Waters Corporation, Milford, MA, USA) employing a turbo ionspray interface in the negative ion mode. The lower limit of quantitation was 1.0 ng/mL (2.03 nM) with a linear calibration range from 1.0 to 1000 ng/mL. The mean intrarun accuracy was 94.8 to 113% (precision, ≤6.2% coefficient of variation [CV]), and the mean interrun accuracy was 94.4 to 103.0% (precision, ≤8.6% CV). […] The AUC0-168hr and […] group was not statistically significant at the 0.05 level and was therefore omitted from the final model. An overall slope was estimated across all groups.

[2] = Safety and tolerability in phase 1 studies; type: in vivo, human
Method: The safety and tolerability of MK-8507 were assessed by clinical evaluation, including vital signs, 12-lead electrocardiograms, laboratory safety tests, and clinical monitoring of AEs.

[3] = 100 mg tablet once weekly for 3 weeks, n=6
[4] = 200 mg tablet once weekly for 3 weeks, n=5/6
[5] = 400 mg tablet once weekly for 3 weeks, n=6
[6] = 100 mg, 100 mg tablet once weekly, wk 1, n=6
[7] = 100 mg, 100 mg tablet once weekly, wk 3, n=6
[8] = 200 mg, 200 mg tablet once weekly, wk 1, n=5/6
[9] = 200 mg, 200 mg tablet once weekly, wk 3, n=5
[10] = 400 mg, 400 mg tablet once weekly, wk 1, n=6
[11] = 400 mg, 400 mg tablet once weekly, wk 3, n=6

N#Cc1cc(Cl)cc(Oc2c(C(F)(F)F)ncn(Cc3cc(C(F)(F)F)c(=O)[nH]n3)c2=O)c1 [MK-8507]
GMR (accumulation ratio, wk 3/wk 1 [90% CI]) of AUC0–168 [1, 3]: 1.18 (1.12–1.25)
GMR (accumulation ratio, wk 3/wk 1 [90% CI]) of C168hr [1, 3]: 1.14 (0.87–1.50)
GMR (accumulation ratio, wk 3/wk 1 [90% CI]) of Cmax [1, 3]: 1.12 (0.96–1.30)
GMR (accumulation ratio, wk 3/wk 1 [90% CI]) of AUC0–168 [1, 4]: 1.23 (1.16–1.31)
GMR (accumulation ratio, wk 3/wk 1 [90% CI]) of C168hr [1, 4]: 1.22 (0.90–1.65)
GMR (accumulation ratio, wk 3/wk 1 [90% CI]) of Cmax [1, 4]: 1.15 (0.98–1.36)
GMR (accumulation ratio, wk 3/wk 1 [90% CI]) of AUC0–168 [1, 5]: 1.23 (1.16–1.31)
GMR (accumulation ratio, wk 3/wk 1 [90% CI]) of C168hr [1, 5]: 1.21 (0.92–1.59)
GMR (accumulation ratio, wk 3/wk 1 [90% CI]) of Cmax [1, 5]: 1.06 (0.91–1.23)
accumulation with multiple dosing ([1]; QW over 3 weeks, 100-mg, 200-mg, 400-mg doses): minimal accumulation; also recorded: modest accumulation
accumulation GMR (day 36, day 22), C168hr ([1]; QW over 3 weeks, 100-mg, 200-mg, 400-mg doses, range): 1.14 to 1.22
AUC(0-t) [1, 6]: 157 µM·h
concentration at 168 h [1, 6]: 320 nM
Cmax [1, 6]: 2940 nM
Tmax ([1]; 100 mg, 100 mg tablet once weekly, wk 1, n=6, read-out: Tmax (median [min, max])): 3 h
concentration at 168 h ([1]; 100 mg, 100 mg tablet once weekly, wk 2, n=6): 390 nM
AUC(0-t) [1, 7]: 185 µM·h
half-life ([1]; 100 mg, 100 mg tablet once weekly, wk 3, n=6, read-out: Apparent terminal t½ (geometric mean [%GVC]) (converted)): 66.7 h
concentration at 168 h [1, 7]: 370 nM
Cmax [1, 7]: 3290 nM
Tmax ([1]; 100 mg, 100 mg tablet once weekly, wk 3, n=6, read-out: Tmax (median [min, max])): 3.03 h
AUC(0-t) [1, 8]: 285 µM·h
concentration at 168 h [1, 8]: 590 nM
Cmax [1, 8]: 4870 nM
Tmax ([1]; 200 mg, 200 mg tablet once weekly, wk 1, n=5/6, read-out: Tmax (median [min, max])): 5 h
concentration at 168 h ([1]; 200 mg, 200 mg tablet once weekly, wk 2, n=5): 700 nM
AUC(0-t) [1, 9]: 352 µM·h
half-life ([1]; 200 mg, 200 mg tablet once weekly, wk 3, n=5, read-out: Apparent terminal t½ (geometric mean [%GVC]) (converted)): 74.2 h
concentration at 168 h [1, 9]: 720 nM
Cmax [1, 9]: 5610 nM
Tmax ([1]; 200 mg, 200 mg tablet once weekly, wk 3, n=5, read-out: Tmax (median [min, max])): 4.01 h
AUC(0-t) [1, 10]: 563 µM·h
concentration at 168 h [1, 10]: 1230 nM
Cmax [1, 10]: 10800 nM
Tmax ([1]; 400 mg, 400 mg tablet once weekly, wk 1, n=6, read-out: Tmax (median [min, max])): 4 h
concentration at 168 h ([1]; 400 mg, 400 mg tablet once weekly, wk 2, n=6): 1110 nM
AUC(0-t) [1, 11]: 694 µM·h
half-life ([1]; 400 mg, 400 mg tablet once weekly, wk 3, n=6, read-out: Apparent terminal t½ (geometric mean [%GVC]) (converted)): 73.1 h
concentration at 168 h [1, 11]: 1490 nM
Cmax [1, 11]: 11500 nM
Tmax ([1]; 400 mg, 400 mg tablet once weekly, wk 3, n=6, read-out: Tmax (median [min, max])): 4 h
half-life ([1]; 400 mg, 100, 200, 400 mg tablet once weekly, range across doses, read-out: geometric mean apparent t1/2): 67 to 74 h
Tmax ([1]; 400 mg, 100, 200, 400 mg tablet once weekly, range across doses, read-out: median time of peak concentration postdose): 3 to 5 h
changes in clinical laboratory assessments, vital signs, electrocardiograms ([2]; both studies): no clinically meaningful changes; also recorded: No clinically meaningful relationships were observed
discontinuation due to an adverse experience ([2]; both studies): no participants discontinued
seriousness and intensity of adverse events ([2]; both studies): nonserious and mild in intensity
tolerability ([2]; single and multiple QW doses): generally well tolerated
participants with cough ([2]; study 1): 3
participants with headache ([2]; study 1): 4
participants with myalgia ([2]; study 1): 2
participants with rhinorrhea ([2]; study 1): 2
AEs considered related to MK-8507 ([2]; study 1, single dose): none
total nonserious AEs ([2]; study 1, single oral dose of MK-8507): 38
AEs considered related to MK-8507 ([2]; study 2, multiple doses): none
total nonserious AEs ([2]; study 2, multiple doses of MK-8507): 13
AEs considered related to MK-8507 ([2]; study 2, single doses (decreased appetite)): One
total nonserious AEs ([2]; study 2, single doses of MK-8507): 10
